This is an account of results in patent publication US11505533B2, “Metabolically stable N-acylaminooxadiazoles useful as antibacterial agents” (MICROBIOTIX, INC., priority 2017, dated 2022).

The target of series [1] is CYP2C19 (Homo sapiens, UniProt P33261).
Series [2] deals with CYP3A4 (Homo sapiens, UniProt P08684).
The subject of series [3] is MRSA strain BAA-1717. Briefly: Neutropenic murine thigh model. Format: in vivo, mice. To be noted: 25 mg/kg PO once, 2 h after infection; CFU counts 24 hrs after dosing; n=4.
For series [4], the target named is CYP450, 2C9 (Homo sapiens, UniProt P11712). As to conditions: 10 µM.
Sequence of CYP450, 2C9 (P11712 whole entry): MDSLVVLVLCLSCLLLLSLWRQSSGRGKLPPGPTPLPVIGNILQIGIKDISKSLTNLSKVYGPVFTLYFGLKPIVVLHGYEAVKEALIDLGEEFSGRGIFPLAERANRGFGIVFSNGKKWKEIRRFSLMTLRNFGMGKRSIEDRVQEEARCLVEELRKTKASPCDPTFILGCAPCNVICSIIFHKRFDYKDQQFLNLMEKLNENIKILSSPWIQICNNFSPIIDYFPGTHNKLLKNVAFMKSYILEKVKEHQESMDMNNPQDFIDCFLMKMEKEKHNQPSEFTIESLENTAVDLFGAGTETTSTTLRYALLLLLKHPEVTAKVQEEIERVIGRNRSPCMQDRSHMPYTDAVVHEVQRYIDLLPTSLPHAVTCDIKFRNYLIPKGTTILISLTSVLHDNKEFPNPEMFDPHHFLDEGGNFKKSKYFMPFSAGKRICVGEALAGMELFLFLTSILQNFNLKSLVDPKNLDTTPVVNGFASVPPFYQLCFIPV
The conditions of series [5]: in vivo.

Sequence of CYP3A4 (P08684 whole entry): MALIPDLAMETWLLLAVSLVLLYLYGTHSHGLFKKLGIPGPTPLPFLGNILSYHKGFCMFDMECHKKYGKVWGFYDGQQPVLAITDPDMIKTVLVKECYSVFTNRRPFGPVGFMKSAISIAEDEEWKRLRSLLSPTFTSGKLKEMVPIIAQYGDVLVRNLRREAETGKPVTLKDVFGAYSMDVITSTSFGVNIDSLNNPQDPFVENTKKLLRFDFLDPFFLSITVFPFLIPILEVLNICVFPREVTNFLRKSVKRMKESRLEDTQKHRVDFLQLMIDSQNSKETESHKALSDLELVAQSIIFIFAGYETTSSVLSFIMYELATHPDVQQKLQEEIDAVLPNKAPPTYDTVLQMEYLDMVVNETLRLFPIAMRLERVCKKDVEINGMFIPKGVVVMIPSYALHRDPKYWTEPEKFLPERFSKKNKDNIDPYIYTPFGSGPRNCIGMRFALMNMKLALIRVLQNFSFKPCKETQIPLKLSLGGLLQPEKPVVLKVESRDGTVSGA
Sequence of CYP2C19 (P33261 whole entry): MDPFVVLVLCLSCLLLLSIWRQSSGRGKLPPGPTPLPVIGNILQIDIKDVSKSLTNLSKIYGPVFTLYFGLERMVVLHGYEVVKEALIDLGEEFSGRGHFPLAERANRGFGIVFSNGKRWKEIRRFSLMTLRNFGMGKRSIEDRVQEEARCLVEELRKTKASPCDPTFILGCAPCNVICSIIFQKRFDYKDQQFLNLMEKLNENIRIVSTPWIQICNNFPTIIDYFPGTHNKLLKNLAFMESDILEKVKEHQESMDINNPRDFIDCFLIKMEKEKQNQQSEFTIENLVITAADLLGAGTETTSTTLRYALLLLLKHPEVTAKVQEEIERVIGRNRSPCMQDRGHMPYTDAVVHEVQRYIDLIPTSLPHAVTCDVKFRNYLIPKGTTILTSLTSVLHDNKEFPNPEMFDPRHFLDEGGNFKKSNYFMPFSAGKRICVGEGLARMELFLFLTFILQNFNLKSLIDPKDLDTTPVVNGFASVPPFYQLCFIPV

As for `O=C(Nc1nnc(-c2ccc(F)cc2)o1)c1ccc(Oc2ccccc2)nc1` [MBX-4237], the inhibition at 10 µM turned out to be 3% in series [1] and 6% in series [2].
`O=C(Nc1nnc(-c2ccc(F)cc2)o1)N1CCc2ccccc2C1` [MBX-4132]: the “drop in CFU/g compared to untreated controls” value in series [3] was more than 2 log CFU/g. Also, in series [4], the “% Inhibition” value worked out at 10%. Further, the “elevated single dose tolerability” value in series [5] was “no effects distinct from vehicle controls”.

What is called inhibition is how much of the control response was suppressed. Low readings indicate a response near the control, high ones a response far below the control. By % Inhibition is commonly meant how much of the control response was suppressed. A high value points to a strong effect.
